Measured values taken from patent US20240024233A1, “Oral Hydrogel Compositions and Uses” (Colgate-Palmolive Company, priority 2020, published 2024).
Values after ≈ are worked out from the molar mass of the structure shown.

Experiments:
[1] = system: Actinomyces viscosus (ATCC #43146) and Streptococcus oralis (ATCC #35037); assay: Viability via SIKT with degraded oral gel; assay type: cell-based; conditions: for percentage of cells that are viable relative to PBS control: n = 6
Text: For viability via SIKT, the same gel degradation procedure as described above is used to treat an overnight culture of Actinomyces viscosus (ATCC #43146) and Streptococcus oralis (ATCC #35037). […] Samples are then processed and the results are presented as a percentage of cells that are viable relative to a control sample treated with PBS alone (negative control).

[2] = Tetrahydrocurcumin solubility (saturation) in hydrogel formulations, UV 280 nm; assay type: physicochemical; conditions: 4 °C, aqueous with cosolvent or surfactant or cyclodextrin, thermodynamic from solid; tested gels
Description: Tetrahydrocurcumin is a highly insoluble drug. It has water solubility of about 6 μg/mL, and this has severely limited attempts to evaluate its in vitro or in vivo potency as a drug because of the difficulty of formulating compositions which can effectively deliver it to body tissues. It is thus a useful reference for compositions intended to deliver low-solubility active agents.
A range of hydrogel formulations are prepared in cold (4° C.) deionized water. Each cold formulation liquid is loaded with tetrahydrocurcumin (0.3 mg/mL of gel) via dispersion with a Speed Mixing apparatus (FlackTek, Inc). Samples are left to interact at 4° C. for 48 hours. Formulations are centrifuged at 10,000 rpm for 60 seconds to separate undissolved active. The saturation of active is determined via UV absorbance at 280 nm.
Tetrahydrocurcumin is found to be soluble in the above tested gels at the following saturation concentrations: […]

[3] = in water; cited from earlier work

With `CCO` [Ethanol] the “percentage of cells that are viable relative to PBS control, Average” value ([1]; Average of Day 0-28, n = 24) was 16.3%, the “percentage of cells that are viable relative to PBS control” value ([1]; Day 0, 30 seconds treatment) was 16.8% and the “percentage of cells that are viable relative to PBS control” value ([1]; Day 7, 30 seconds treatment) was 14.5%. The “percentage of cells that are viable relative to PBS control” value ([1]; Day 14, 30 seconds treatment) was 14.7% and the “percentage of cells that are viable relative to PBS control” value ([1]; Day 28, 30 seconds treatment) was 19.0%.

In the case of `COc1cc(CCC(=O)CC(=O)CCc2ccc(O)c(OC)c2)ccc1O` [Tetrahydrocurcumin], the solubility at 48 h [2] is given as 85 to 236 µg/mL (≈ 228 to 634 µM) and the water solubility [3] is given as “about 6 μg/mL”.
